Measured values reported in US9999616B2 (ZENITH EPIGENETICS LTD., priority 2013, dated 2018).

Key:
[1] = test system: MM1.s cells; test: In vivo efficacy in multiple myeloma xenograft model using MM1.s cells; set-up: species or system mouse; conditions: mice, oral 25 to 90 mg/kg
Experimental: MM1.s cells (ATCC) were grown under standard cell culture conditions and SCID-Beige strain of female mice age 6-7 weeks were injected with 10×10^6 cells/animal in 100 μL PBS+100 μL Matrigel in the lower left abdominal flank. By approximately day 21 after MM1.s cells injection, mice were randomized based on tumor volume (L×W×H)/2) of average 120 mm^3. Mice were dosed orally with compound at 25 to 90 mg/kg b.i.d and or q.d in EA006 formulation at 10 mL/kg body weight dose volume. Tumor measurements were taken with electronic micro calipers and body weights measured on alternate days beginning from dosing period. The average tumor volumes, percent Tumor Growth Inhibition (TGI) and % change in body weights were compared relative to Vehicle control animals. The means, statistical analysis and the comparison between groups were calculated using Student's t-test in Excel.

[2] = test system: hIL-17 mRNA; test: Inhibition of hIL-17 mRNA transcription in OKT3-stimulated peripheral blood mononuclear cells; format: cell-based; conditions: human PBMC, OKT3 stimulation 6 h, read-out: IL-17 Activity
Summary of the method: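 Human PBMCs in IL-2 (20 ng/ml) medium preincubated 1 h with compound or 0.1% DMSO, then OKT3-stimulated for 6 h at 37 °C. hIL-17 mRNA quantified by one-step TaqMan qRT-PCR, normalized to an internal control, as fold induction relative to control.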

[3] = target: Brd4 bromodomain 1 (BRD4(1)) (Homo sapiens, UniProt O60885); test: Inhibition of tetra-acetylated histone H4 binding to Brd4 bromodomain 1, measured by FRET (HTRF); set-up: made in house; host or cells: E. coli BL21(DE3); conditions: 2 h at room temperature
Summary of the method: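 Inhibition was read as a drop in 665 nm relative to 620 nm HTRF signal after 2 h at room temperature, with IC50 from dose-response curves in duplicate wells. Reactions held 200 nM E. coli-expressed His-tagged bromodomain and 25-50 nM biotinylated tetra-acetylated histone H4 peptide. Buffer was 30 mM HEPES pH 7.4 with KF, CHAPS, BSA and 0.2% DMSO.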

[4] = test system: hIL-6 mRNA; test: Inhibition of hIL-6 mRNA transcription in LPS-stimulated U937 macrophages; format: cell-based, Human; conditions: Homo sapiens, U-937, PMA-differentiated U937 cells, 1 h pretreatment, LPS 3 h, read-out: IL-6 activity
Summary of the method: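 PMA-differentiated U937 macrophages (60 ng/mL PMA, 3 days) pretreated 1 h with compound in 0.1% DMSO, then stimulated with 1 ug/mL E. coli LPS for 3 h at 37° C. IL-6 mRNA quantified by one-step TaqMan qRT-PCR, normalized to cyclophilin; fold expression relative to control, triplicate wells.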

[5] = test system: Human AML MV-4-11 cells; test: Inhibition of cell proliferation in MV4-11 cells (CellTiter Aqueous One); format: cell-based; conditions: MV4-11, 72 h
Summary of the method: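 MV4-11 cells, 5×10^4 per well in IMDM with 10% FBS, were exposed to increasing compound concentrations or 0.1% DMSO for 72 h at 37 °C in triplicate. Viability was read by MTS (CellTiter Aqueous One) absorbance at 490 nm after 3-4 h. IC50 was derived from background-corrected signal relative to DMSO.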

IC50 [2] | IC50 [3] | IC50 [4] | IC50 [5] | Structure (SMILES) | In vivo activity [1]
300 to 3000 nM | ≤ 300 nM | ≤ 300 nM | 300 to 3000 nM | Cc1nc2c(-c3cccnc3C)cc(-c3c(C)noc3C)cc2[nH]1 [Example Compound 41, 3,5-dimethyl-4-(2-methyl-4-(2-methylpyridin-3-yl)-1H-benzo[d]imidazol-6-yl)isoxazole] | Active
≤ 300 nM | ≤ 300 nM | ≤ 300 nM | 300 to 3000 nM | Cc1nc2c(-c3c(C)nn(C)c3C)cc(-c3c(C)noc3C)cc2[nH]1 [Example Compound 49, 3,5-dimethyl-4-(2-methyl-4-(1,3,5-trimethyl-1H-pyrazol-4-yl)-1H-benzo[d]imidazol-6-yl)isoxazole] | 
≤ 300 nM | ≤ 300 nM | 300 to 3000 nM | 300 to 3000 nM | Cc1nc2c(-c3c(C)noc3C)cc(-c3c(C)noc3C)cc2[nH]1 [Example Compound 6, 4,4′-(2-methyl-1H-benzo[d]imidazole-4,6-diyl)bis(3,5-dimethylisoxazole)] | Active
300 to 3000 nM | ≤ 300 nM | ≤ 300 nM | 300 to 3000 nM | Cc1noc(C)c1-c1cc(-c2c(C)noc2C)c2nc[nH]c2c1 [Example Compound 1, 4,4′-(1H-benzo[d]imidazole-4,6-diyl)bis(3,5-dimethylisoxazole)] | Active
